For assay [1], the system named is Staphylococcus aureus. The experiment in a line: Susceptibility testing (MIC) Assay 1, broth microdilution. In kind it is cell-based. The protocol: (§1) Minimum Inhibitory Concentrations (MICs) were determined by the broth microdilution method in accordance with the Clinical and Laboratory Standards Institute (CLSI) guidelines. In brief, organism suspensions were adjusted to a 0.5 McFarland standard to yield a final inoculum between 3×10^5 and 7×10^5 colony-forming units (CFU)/mL. Bacterial inocula were prepared for most organisms in sterile, cation adjusted Mueller-Hinton Broth (Beckton Dickinson). The streptococci were prepared as above in cation adjusted Mueller-Hinton Broth to which 2.5% lysed horse blood (Hema Resource & Supply Inc.) was added. An inoculum volume of 100 μL was added to wells (using a Tecan EVO robot) containing 2 μL of DMSO containing 2-fold serial dilutions of drug. All inoculated microdilution trays were incubated in ambient air at 35° C. for 18-24 hours. Following incubation, the lowest concentration of the drug that prevented visible growth as read at OD600 nm and confirmed by a visual read using a test reading mirror was recorded as the MIC. Performance of the assay was monitored by the use of laboratory quality-control strains and commercially available control compounds with defined MIC spectrums, in accordance with CLSI guidelines. Table 1 provides the MIC results (μM) of Examples 1-77 tested in Assay 1. Table 2 provides the MIC (μg/mL) results of Examples 78-80 tested in Assay 1.
In general terms: In broth dilution the organism is exposed to a series of concentrations in liquid medium.

Assay [2] has as its system Streptococcus pneumoniae. The assay is described as above. In kind it is cell-based. The protocol: as §1
Assay [3] concerns Streptococcus pyogenes. The description is as above. In kind it is cell-based. The settings on record: Streptococcus pyrgenes, in vivo strain, read-out: Spy MIC. How it is done: as §1
Assay [4] has as its system Escherichia coli. The experiment in a line: Susceptibility testing (MIC) Assay 2, broth microdilution. In kind it is cell-based. The settings on record: K12, read-out: Eco MIC. The protocol:
(§2) Minimum Inhibitory Concentrations (MICs) were determined by the broth microdilution method in accordance with the Clinical and Laboratory Standards Institute (CLSI) guidelines. In brief, organism suspensions were adjusted to a 0.5 McFarland standard to yield a final inoculum between 3×10^5 and 7×10^5 colony-forming units (CFU)/mL. Bacterial inocula were generally prepared in sterile, cation adjusted Mueller-Hinton Broth (Becton Dickinson) which included Escherichia coli, Klebsiella pneumoniae, and Pseudomonas aeruginosa. Haemophilus influenzae bacterial inocula were prepared in sterile, cation adjusted Mueller-Hinton Broth (Becton Dickinson) containing 0.5% yeast extract (Becton Dickinson) plus 30 mL of 15 μg/mL Bovine Hematin stock (Sigma), and 3 mL of 15 μg/mL β-nicotinamide adenine dinucleotide (Sigma). Strains of Neisseria were tested for MICs using agar dilution methodology in accordance with CLSI guidelines. For broth microdilution testing, an inoculum volume of 100 μL was added to wells (using a Tecan EVO robot) containing 2 μL of DMSO containing 2-fold serial dilutions of drug. All inoculated microdilution panels were incubated in ambient air at 35° C. for 18-24 hours. Following incubation, the lowest concentration of the drug that prevented visible growth as read at OD600 nm and confirmed by a visual read using a test reading mirror was recorded as the MIC. Performance of the assay was monitored by the use of laboratory quality-control strains and commercially available control compounds with defined MIC spectrums, in accordance with CLSI guidelines. Table 3 provides the MIC results (μM) of Examples 1-77 tested in Assay 2. Table 4 provides the MIC (μg/mL) results of Examples 78-80 tested in Assay 2.

Assay [5] relates to Haemophilus influenzae. The description is as above. In kind it is cell-based. The settings on record: ATCC 51907, in vivo strain, read-out: Hin MIC. The protocol:
as §2

The test system of assay [6] is Klebsiella pneumoniae. The description is as above. In kind it is cell-based. The settings on record: clinical isolate, mucoid, read-out: Kpn MIC. The protocol:
as §2

Assay [7] concerns Pseudomonas aeruginosa. Described as above. In kind it is cell-based. The settings on record: for MIC: PAO1, read-out: Pae MIC. How it is done: as §2
Assay [8] concerns the target Escherichia coli DNA gyrase A/B tetramer (Escherichia coli (strain K12), UniProt P0AES4+P0AES6). The assay can be described thus: DNA gyrase supercoiling activity fluorescence polarisation assay. In kind it is biochemical. As to conditions: 0.3 mM ATP. How it is done:
In a black, 384-well polystyrene assay plate, 30 microliters/well of 5 nM Escherichia coli DNA gyrase A/B tetramer and 130 micrograms/mL of topologically relaxed plasmid containing the triplex-forming sequence
in an assay buffer consisting of 35 mM Tris-HCl (pH 7.5), 24 mM KCl, 4 mM MgCl2, 2 mM dithiothreitol, 1.8 mM spermidine, 5% (v/v) glycerol, 200 nM bovine serum albumin, 0.8% dimethylsulfoxide, and 0.3 mM ATP were incubated at ambient temperature for (typically 30 minutes) in the absence or presence of 5-10 different concentrations of test compound. The supercoiling reactions were quenched by the addition of 10 microliters/well of 40 nM oligodeoxynucleotide probe in 3× triplex-forming buffer consisting of 150 mM NaCl, and 150 mM sodium acetate at pH 3.5. The oligodeoxynucleotide probe was 5′-BODIPY-FL-labeled
After 60 minutes, the fluorescence anisotropy of the BODIPY-FL was measured in a Tecan Ultra plate reader, using 485 nm excitation and 535 nm emission filters equipped with polarizers. The IC50 was determined by nonlinear regression using two control reactions.
(In general: Fluorescence polarisation rises when a labelled molecule tumbles more slowly, as on binding a larger partner.)

The mark [9] stands for this setting: Staphylococcus aureus, Staphylococcus aureus in vivo strain, MSQS, read-out: Sau(d) MIC.
Where [10] appears, read: Staphylococcus aureus, in vivo strain, MRQR, read-out: Sau(e) MIC.
The mark [11] stands for this setting: Staphylococcus aureus, serum, read-out: Sau(f) MIC.
Where [12] appears, read: in vivo strain (footnote b), read-out: Spn(b) MIC.
[13] abbreviates: in vivo strain (footnote c), read-out: Spn(c) MIC.
[14] abbreviates: ATCC51907, Haemophilus influenzae.
[15] abbreviates: Eco Gyr FP Mean IC50, E. coli DNA gyrase supercoiling.

Here are results for five compounds from US8889671B2, “Compounds and methods for treating bacterial infections” (AstraZeneca AB, priority 2013, dated 2014).

Converted amounts (≈) assume the structure as drawn. Where two headings read alike, the source gives them in different places.

In the case of `C[C@@H]1CN2c3c(cc4c(N5C(=O)OC[C@@H]5CCCF)noc4c3F)CC3(C(=O)NC(=O)NC3=O)[C@H]2[C@H](C)O1` [Example 30, (2R,4S,4aS)-11-Fluoro-8-((S)-4-(3-fluoropropyl)-2-oxooxazolidin-3-yl)-2,4-dimethyl-2,4,4a,6-tetrahydro-1H,1′H-spiro[isoxazolo[4,5-g][1,4]oxazino[4,3-a]quinoline-5,5′-pyrimidine]-2′,4′,6′(3′H)-trione], the MIC is less than 0.2 µM in assay [1] (setting [9]); 0.78 µM (≈ 0.416 µg/mL) in assay [1] (setting [10]); 0.78 µM (≈ 0.416 µg/mL) in assay [1] (setting [11]); 0.39 µM (≈ 0.208 µg/mL) in assay [2] (setting [12]); 0.39 µM (≈ 0.208 µg/mL) in assay [2] (setting [13]); 0.39 µM (≈ 0.208 µg/mL) in assay [3] (Streptococcus pyogenes). Besides, the MIC was 25 µM (≈ 13.3 µg/mL) in assay [4], 0.39 µM (≈ 0.208 µg/mL) in assay [5] (setting [14]), 200 µM (≈ 107 µg/mL) in assay [6] and more than 200 µM in assay [7]. The compound further registered an IC50 in assay [8] (setting [15]) of 500 nM.
In the case of `C[C@@H]1CN2c3c(cc4c(N5C(=O)OC[C@@H]5[C@@H](O)CO)noc4c3F)CC3(C(=O)NC(=O)NC3=O)[C@H]2[C@H](C)O1` [Example 72], the MIC in assay [1] (setting [9]) came out at 25 µM (≈ 13.3 µg/mL); in assay [1] (setting [10]) it was 50 µM (≈ 26.7 µg/mL); in assay [1] (setting [11]), 25 µM (≈ 13.3 µg/mL); in assay [2] (setting [12]), 0.78 µM (≈ 0.416 µg/mL); in assay [2] (setting [13]) it was 3.1 µM (≈ 1.65 µg/mL); in assay [3] (Streptococcus pyogenes), 0.39 µM (≈ 0.208 µg/mL). For the same compound, the MIC in assay [4] was more than 200 µM; in assay [5] (setting [14]), 3.1 µM (≈ 1.65 µg/mL); in assay [6] it was more than 200 µM; in assay [7], more than 200 µM. The compound also came in with a half-maximal inhibitory concentration (IC50) in assay [8] (setting [15]) of 290 nM.
Turning to `C[C@@H]1CN2c3c(cc4c(N5C[C@H](C=NO)OC5=O)noc4c3F)CC3(C(=O)NC(=O)NC3=O)[C@H]2[C@H](C)O1` [Example 40, (2R,4S,4aS)-11-Fluoro-8-{(5R)-5-[(hydroxyimino)methyl]-2-oxo-1,3-oxazolidin-3-yl}-2,4-dimethyl-1,2,4,4a-tetrahydro-2′H,6H-spiro[1,4-oxazino[4,3a][1,2]oxazolo[4,5-g]quinoline-5,5′-pyrimidine]-2′,4′,6′(1′H,3′H)-trione], the MIC in assay [1] (setting [9]) was determined as 0.78 µM (≈ 0.403 µg/mL); in assay [1] (setting [10]) it was 3.1 µM (≈ 1.6 µg/mL); in assay [1] (setting [11]) it was 1.6 µM (≈ 0.826 µg/mL); in assay [2] (setting [12]) it was 0.39 µM (≈ 0.201 µg/mL); in assay [2] (setting [13]), 0.78 µM (≈ 0.403 µg/mL); in assay [3] (Streptococcus pyogenes) it was 0.28 µM (≈ 0.145 µg/mL). The MIC was 12 µM (≈ 6.2 µg/mL) in assay [4], 0.39 µM (≈ 0.201 µg/mL) in assay [5] (setting [14]), more than 200 µM in assay [6] and more than 200 µM in assay [7]. Further, inhibition in assay [8] (setting [15]) was half-maximal at 380 nM (IC50).
On to `C[C@@H]1CN2c3c(cc4c(N5C(=O)OC[C@H]5C5CCOCC5)noc4c3F)CC3(C(=O)NC(=O)NC3=O)[C@H]2[C@H](C)O1` [Example 27], for which the MIC in assay [1] (Staphylococcus aureus in vivo strain, MSQS, read-out: Sau(d) MIC) came out at 0.78 µM (≈ 0.435 µg/mL); in assay [1] (setting [10]), 3.1 µM (≈ 1.73 µg/mL); in assay [1] (setting [11]), 1.6 µM (≈ 0.892 µg/mL); in assay [2] (setting [12]) it was 0.78 µM (≈ 0.435 µg/mL); in assay [2] (setting [13]), 0.78 µM (≈ 0.435 µg/mL); in assay [3], 0.78 µM (≈ 0.435 µg/mL). The MIC in assay [4] is 100 µM (≈ 55.8 µg/mL); in assay [5] it was 0.39 µM (≈ 0.217 µg/mL); in assay [6] it was more than 200 µM. The “Pae MIC” value in assay [7] (PAO1) was more than 200 µM. The IC50 in assay [8] (E. coli DNA gyrase supercoiling, read-out: Eco Gyr FP Mean IC50) was determined as 530 nM.
On to `C[C@@H]1CN2c3c(cc4c(N5C(=O)OC[C@H]5c5ncnn5C)noc4c3F)CC3(C(=O)NC(=O)NC3=O)[C@H]2[C@H](C)O1` [Example 69, (2R,4S,4aS)-11-Fluoro-2,4-dimethyl-8-((R)-4-(1-methyl-1H-1,2,4-triazol-5-yl)-2-oxooxazolidin-3-yl)-2,4,4a,6-tetrahydro-1H,1′H-spiro[isoxazolo[4,5-g][1,4]oxazino[4,3-a]quinoline-5,5′-pyrimidine]-2′,4′,6′(3′H)-trione], for which the MIC was 12 µM (≈ 6.65 µg/mL) in assay [1] (setting [9]); 25 µM (≈ 13.9 µg/mL) in assay [1] (setting [10]); 12 µM (≈ 6.65 µg/mL) in assay [1] (setting [11]); 12 µM (≈ 6.65 µg/mL) in assay [2] (setting [12]); 12 µM (≈ 6.65 µg/mL) in assay [2] (setting [13]); 3.1 µM (≈ 1.72 µg/mL) in assay [3] (Streptococcus pyogenes). The MIC in assay [4] was more than 200 µM; in assay [5] (setting [14]), 3.1 µM (≈ 1.72 µg/mL); in assay [6] it was more than 200 µM; in assay [7], more than 200 µM. In assay [8] (setting [15]), this compound displayed a 50% inhibitory concentration (IC50) of 600 nM.

Broadly, the IC50 is the concentration that inhibits the measured activity by half.
